Consider 16 compounds from article PMC7245249 (Biomedical Journal, 2020).

The structures appear in SMILES notation. Structures can show the parent of a compound that is named as a salt. Where two headings read alike, the source gives them in different places.

The test system of one series is Human coronavirus OC43. The experiment in a line: microbe, parasite or virus in culture. Type of series: cell-based, Human coronavirus OC43 (HCoV-OC43). To be noted: for EC50: read-out: EC50 (IFA), Human coronavirus OC43; for Selectivity index, Human coronavirus OC43: CC50/EC50 in HCT-8 cells.
Series [1] deals with Feline infectious peritonitis virus. The series is classed as cell-based. To be noted: for EC50: read-out: EC50 (Visual assay), Feline infectious peritonitis virus; for Selectivity index, Feline infectious peritonitis virus: CC50/EC50 in Fcwf-4 cells.
A short description of series [2]: in vitro. To be noted: human.
Series [3] can be described thus: in vitro. The settings on record: cat (Felis catus).
The mark [4] stands for this setting: Betacoronavirus 1, OC43, HCT-8, 72 h.

A word on the EC50: it is the midpoint of the concentration-response curve. For the compound `COc1ccc(C[C@H]2NC[C@H](O)[C@H]2OC(C)=O)cc1` [Anisomycin], the figures for the EC50 (in the series with Human coronavirus OC43; in series [1]) were 0.2 ± 0.03 µM and 0.023 µM, respectively.
On to `CCCCCC[C@H]1C(=O)O[C@H](C)[C@H](NC(=O)c2cccc(NC=O)c2O)C(=O)O[C@@H](C)[C@@H]1OC(=O)CC(C)C` [Antimycin A], for which the figures for the CC50 in the series “in vitro [2]” and in “in vitro [3]” were > 50 µM and 81.9 ± 6.36 µM, respectively. Further, the EC50 in the series on Human coronavirus OC43 (setting [4]) turned out to be 0.062 ± 0.003 µM. The “Selectivity index, Human coronavirus OC43” value in the series with Human coronavirus OC43 was >806. Besides, the “Selectivity index, Feline infectious peritonitis virus” value in series [1] was 1.10.
As to `O=C1C(O)=C([C@H]2CC[C@H](c3ccc(Cl)cc3)CC2)C(=O)c2ccccc21` [Atovaquone], the CC50 is > 50 µM in the series “in vitro [2]” and > 100 µM in the series “in vitro [3]”. In the series on Human coronavirus OC43 (setting [4]), the EC50 was 6.78 ± 0.73 µM. Besides, the “Selectivity index, Human coronavirus OC43” value in the series on Human coronavirus OC43 was >7.37.
As for `CCN(CC)CCCC(C)Nc1ccnc2cc(Cl)ccc12` (stereo not drawn) [Chloroquine (diphosphate), Chloroquine], the CC50 is > 50 µM in “in vitro [2]” and 37.5 µM in “in vitro [3]”. The EC50 in the series with Human coronavirus OC43 (setting [4]) was found to be 27.4 ± 2.51 µM; in series [1], 27.9 ± 0.72 µM. Also, in the series on Human coronavirus OC43, the “Selectivity index, Human coronavirus OC43” value is listed as >1.82. The “Selectivity index, Feline infectious peritonitis virus” value in series [1] came to 1.35.
For `Cc1nc2c([nH]1)-c1ccccc1N(C(=O)c1ccc(NC(=O)c3ccccc3-c3ccccc3)cc1)CC2` [Conivaptan], the CC50 in the series “in vitro [2]” was > 50 µM; in the series “in vitro [3]”, > 100 µM. Besides, the values for the EC50 (in the series on Human coronavirus OC43 (setting [4]); in series [1]) were 12.2 ± 4.2 µM and 16.9 ± 1.51 µM, respectively. For the same compound, the “Selectivity index, Human coronavirus OC43” value with Human coronavirus OC43 is given as >4.10.
Take `CC[C@H]1CN2CCc3cc(OC)c(OC)cc3[C@@H]2C[C@@H]1C[C@H]1NCCc2cc(OC)c(OC)cc21` [Emetine]: the values for the CC50 in the series “in vitro [2]” and in “in vitro [3]” were > 50 µM and 0.03 µM, respectively. Moreover, the 50% effective concentration (EC50) in the series on Human coronavirus OC43 (setting [4]) is 0.21 ± 0.07 µM. For the same compound, the “Selectivity index, Human coronavirus OC43” value with Human coronavirus OC43 is reported as >238. In series [1], the “Selectivity index, Feline infectious peritonitis virus” value stood at 3.00.
Consider `N#C[C@@]1(c2ccc3c(N)ncnn23)O[C@H](CO)[C@@H](O)[C@H]1O` [GS-441524], for which the CC50 is > 50 µM in the series “in vitro [2]” and > 100 µM in “in vitro [3]”. Also, the EC50 with Human coronavirus OC43 (setting [4]) came out at 6.77 ± 0.71 µM. Moreover, the “Selectivity index, Human coronavirus OC43” value in the series on Human coronavirus OC43 is >7.39.
`Nc1ccn([C@@H]2O[C@H](CO)[C@@H](O)C2(F)F)c(=O)n1` [Gemcitabine (Hydrochloride), Gemcitabine]: the CC50 is > 50 µM in “in vitro [2]” and > 100 µM in the series “in vitro [3]”. Also, in the series with Human coronavirus OC43 (setting [4]), the half-maximal effective concentration (EC50) was found to be 38.6 ± 11.4 µM. Moreover, the “Selectivity index, Human coronavirus OC43” value with Human coronavirus OC43 is reported as >1.30.
With `COC(=O)C[C@](O)(CCCC(C)(C)O)C(=O)O[C@@H]1C(OC)=C[C@]23CCCN2CCc2cc4c(cc2[C@H]13)OCO4` [Homoharringtonine], the CC50 was found to be 7.61 ± 0.6 µM in “in vitro [2]” and 0.049 ± 0.002 µM in the series “in vitro [3]”. Also, the concentration for a half-maximal effect (EC50) in the series on Human coronavirus OC43 (setting [4]) was found to be 0.29 ± 0.03 µM. Also, in the series with Human coronavirus OC43, the “Selectivity index, Human coronavirus OC43” value was 26.7. Further, in series [1], the “Selectivity index, Feline infectious peritonitis virus” value came to 1.58.
The like results for `O=C(Nc1ccc([N+](=O)[O-])cc1Cl)c1cc(Cl)ccc1O` [Niclosamide] were, in that order, > 50 µM, 0.23 µM, 1.36 ± 0.56 µM, >36.8 and 0.80.
Take `CC(=O)Oc1ccccc1C(=O)Nc1ncc([N+](=O)[O-])s1` [Nitazoxanide]: the CC50 is > 50 µM in the series “in vitro [2]” and 4.69 µM in “in vitro [3]”. Also, in the series with Human coronavirus OC43 (setting [4]), the EC50 is 28.6 ± 7.44 µM. Besides, in the series with Human coronavirus OC43, the “Selectivity index, Human coronavirus OC43” value was >1.75.
In the case of `CC[C@H]1/C=C/C=C/C[C@@H](C)[C@H](O)[C@@](C)(O)C(=O)[C@@H](C)[C@H](O)[C@@H](C)C(=O)[C@@H](C)[C@H](O)[C@@H](C)/C=C/C(=O)O[C@@H]2[C@H](C)[C@H](CC1)O[C@]1(CC[C@H](C)[C@H](C[C@@H](C)O)O1)[C@H]2C` [Oligomycin], the figures for the CC50 in the series “in vitro [2]” and in “in vitro [3]” were > 50 µM and 18.8 µM, respectively. Also, the results for the 50% effective concentration (EC50) in the series on Human coronavirus OC43 (setting [4]) and in the series with Human coronavirus OC43 were 5.2 µM and 5.22 ± 0.96 µM, respectively. Moreover, the “Selectivity index, Human coronavirus OC43” value with Human coronavirus OC43 is reported as >9.58. The “Selectivity index, Feline infectious peritonitis virus” value in series [1] turned out to be 1.06.
As to `CC[C@@H](C(=O)[C@@H](C)[C@@H](O)[C@H](C)[C@@H]1O[C@@H]([C@@H](CC)C(=O)O)CC[C@@H]1C)[C@H]1O[C@]2(C=C[C@@H](O)[C@]3(CC[C@@](C)([C@H]4CC[C@](O)(CC)[C@H](C)O4)O3)O2)[C@H](C)C[C@@H]1C` [Salinomycin], the CC50 in “in vitro [2]” is > 50 µM; in “in vitro [3]”, 0.34 ± 0.1 µM. Further, the concentration giving a half-maximal response (EC50) in the series on Human coronavirus OC43 (setting [4]) was determined as 5.78 ± 2.17 µM. Further, the “Selectivity index, Human coronavirus OC43” value in the series on Human coronavirus OC43 is on record as >8.65. In addition, the “Selectivity index, Feline infectious peritonitis virus” value in series [1] is 0.49.
`CCN(CC)CCOc1ccc2c(c1)C(=O)c1cc(OCCN(CC)CC)ccc1-2` [Tilorone (dihydrochloride), Tilorone]: the figures for the CC50 in “in vitro [2]” and in the series “in vitro [3]” were 35.9 ± 2.97 µM and 9.38 µM, respectively. Besides, in the series on Human coronavirus OC43 (setting [4]), the EC50 worked out at 26 ± 2.24 µM. Further, the “Selectivity index, Human coronavirus OC43” value with Human coronavirus OC43 is recorded as 1.38. The “Selectivity index, Feline infectious peritonitis virus” value in series [1] turned out to be 0.84.
In the case of `CC(C)[C@@H]1NC(=O)[C@H](C)OC(=O)[C@@H](C(C)C)NC(=O)[C@@H](C(C)C)OC(=O)[C@H](C(C)C)NC(=O)[C@H](C)OC(=O)[C@@H](C(C)C)NC(=O)[C@@H](C(C)C)OC(=O)[C@H](C(C)C)NC(=O)[C@H](C)OC(=O)[C@@H](C(C)C)NC(=O)[C@@H](C(C)C)OC1=O` [Valinomycin], the CC50 in the series “in vitro [2]” was > 50 µM; in “in vitro [3]”, 3.98 ± 0.39 µM. The EC50 stood at 0.4 µM in the series on Human coronavirus OC43 (setting [4]) and 0.41 ± 0.02 µM with Human coronavirus OC43. Besides, in the series with Human coronavirus OC43, the “Selectivity index, Human coronavirus OC43” value was >122. Besides, the “Selectivity index, Feline infectious peritonitis virus” value in series [1] stood at 2.45.
Consider `CS(=O)(=O)c1ccc(C(=O)Nc2ccc(Cl)c(-c3ccccn3)c2)c(Cl)c1` [Vismodegib], for which the CC50 in “in vitro [2]” is > 50 µM; in the series “in vitro [3]”, > 100 µM. Moreover, the EC50 in the series on Human coronavirus OC43 (setting [4]) worked out at 47.6 ± 3.29 µM. Besides, in the series with Human coronavirus OC43, the “Selectivity index, Human coronavirus OC43” value is given as >1.05.
